Results as given in patent publication US20030206876A1, “Composition” (priority 2000, published 2003).

System: oral bacteria (production of volatile sulfur compounds from cysteine)
Experiment: cysteine challenge method for halitosis (oral malodor) efficacy, VSC response measured with Halimeter
Type: in vivo
Description: The ability of low doses of chlorhexidine to combat halitosis (oral malodor) was assessed using the cysteine challenge method. This measures the ability of oral bacteria to produce volatile sulfur compounds (VSC), the major odor component of oral malodor, from cysteine and is correlated with organoleptic evaluation by odor judges. Testing consists of rinsing the mouth with 5 ml of 6 mM cysteine for 30 seconds and measuring the resulting the VSC response (mainly hydrogen sulphide) with a chemical sensor instrument such as the Halimeter. Cysteine challenge testing consisted of the obtaining of an initial baseline VSC determination, the subsequent introduction of the cysteine challenge substrate, measuring the VSC response over a 20 minute period, introducing the test rinse and at set times thereafter, repeating the cysteine challenge for up to 7 hours. Inhibition was assessed quantitatively by the degree of inhibition of VSC production from cysteine by the test agent, chlorhexidine digluconate, as compared to VSC production from cysteine at baseline. Duration of the inhibition was assessed as the time it takes for VSC production with successive cysteine challenges to return to that seen at baseline.

[H]/N=C(\N/C(=N/[H])NCCCCCCNC(=N)NC(=N)Nc1ccc(Cl)cc1)Nc1ccc(Cl)cc1 [chlorhexidine digluconate]
inhibition of production of VSCs at lower concentrations (chlorhexidine digluconate 0.020, 0.015, 0.0125 and 0.010% by weight of the composition): Similarly advantageous results | time after the rinse at which most inhibition of VSC production was seen (mouthrinse, chlorhexidine digluconate 0.025% (v/v)): two | inhibition of production of VSCs from cysteine compared to baseline (mouthrinse, chlorhexidine digluconate 0.025% (v/v), cysteine challenge 5 ml of 6 mM cysteine for 30 seconds): significantly inhibit | duration of the inhibition of VSC production from the initial rinse (gradually decreasing levels) (mouthrinse, chlorhexidine digluconate 0.025% (v/v), successive cysteine challenges for up to 7 hours): over 7 hours
